Experiment [1] has as its system Histamine-induced anaphylactoid reactions. As to the kind of experiment: Inhibition of anaphylactoid cutaneous reaction induced by histamine. Format: in vivo, rat (Sprague-Dawley). The conditions noted are these: Rattus norvegicus, 1 h; rats, 2 × 10^-5 mol/kg p.o., one hour before challenge; histamine intradermal. On the procedure: (§1) 1. Determination of the inhibition of passive cutaneous anaphylaxis (P.C.A.) and of the anaphylactoid cutaneous reaction induced by histamine.
(§2) The determination of the inhibition of passive cutaneous anaphylaxis and the anaphylactoid cutaneous reaction induced by histamine was carried out as follows:
To determine the histamine-induced anaphylactoid skin reaction, the animals were injected intradermally in the flank opposite to the antiserum administration with 50 μl of a physiological saline solution containing 0.8 mg/ml of histamine directly before the i.v. injection of the solution containing the ovalbumin and the blue dye.
(§3) On the test days, the test substances were dissolved in distilled water which contained 1% by volume of dimethylformamide and 1% by volume of Tween®20 (polyoxyethylene(20) sorbitan monolaurate). One hour before the challenging ovalbumin administration, each animal received 2×10^-5 mol/kg of test substance administered orally in 0.5 ml of solution. A control group received only the solvent for comparison.
(§4) The oedematous anaphylactic (P.C.A.) and anaphylactoid (histamine-induced) reactions caused by the challenging i.v. ovalbumin injection, which are manifested by oedema formation, swelling and exudation of blue dye, were evaluated 30 minutes after challenge by the i.v. ovalbumin injection. This was done by visual determination of the extent to which the blue dye emerges at the sites of oedema formation. The percentage inhibition of anaphylactic and anaphylactoid reactions caused by the test substances was determined in comparison with the reactions of the control animals not treated with test substance with the aid of comparison scales.
(§5) The results obtained by the above test methods using compounds of the formula I are shown in the following Table A. The example numbers given for the compounds of formula I relate to the following preparation examples.

Another experiment addresses T1, histamine (H1) receptor (Cavia porcellus, UniProt P31389).
T1 construct: isolated smooth muscle of the guinea-pig ileum; from tissue; host or cells: isolated ileum segments of Dunkin Hartley guinea-pigs
As to the kind of experiment: Antihistamine (H1) effect: inhibition of histamine-induced contractions of isolated guinea-pig ileum in vitro. Format: cell-based, guinea-pig (Dunkin Hartley). The following applies: histamine 5 × 10^-6 mol/l, test substance 10^-6 mol/l. How it is done:
3. Investigation of the antihistamine (H1) effect based on histamine (H1) receptor antagonism in vitro.
To investigate the histamine (H1) receptor antagonism of the substances, the inhibitory effect thereof on histamine-induced contractions of the smooth musculature of isolated organ was determined in vitro. Isolated strips of organ from the ileum were used. In an organ bath of physiological saline solution, they react to addition of histamine by contracting. Addition of the compounds of the invention decreases this histamine-induced contraction of the smooth musculature of the ileum strips. The extent of decrease of the contraction is an indication of the antihistamine (H1) activity of the compounds. The investigation is carried out analogously to the method originally described by Magnus (Pflugers Arch. 102, 123 (1904)).
Experimental description of the determination of the inhibitory effect on the contraction induced by a 5×10^-6 molar histamine concentration on isolated smooth muscle of the guinea-pig ileum.
For the test, 1.5 cm long segments of the ileum from Dunkin Hartley guinea-pigs having a body weight of 300-500 g were employed. Each strip was placed in an organ bath of 10 ml of Krebs-Henseleit physiological saline solution and attached to a customary apparatus for isotonically measuring changes in length of the ileum strip (automated Celaster measuring apparatus) so that the tissue is under a tension of 1 g. The bath was kept at a pH of 7.4 and aerated with a mixture of 5% CO2 and 95% O2. After an equilibration phase, an isotonic contraction of the tissue was produced by adding histamine in a final concentration of 5×10^-6 mol/l and was washed out again after a contact time of 30 seconds. Only those tissues in which three reproducible contractions were obtained at 10 minute intervals were used in the subsequent test. The test substances were then added in a final concentration of 10^-6 mol/l, and after a contact time of 30 seconds histamine was again added up to a concentration of 5×10^-6 mol/l. The contractions which occurred were measured over the course of 30 seconds. The tissue was then washed several times over a period of 10 minutes. A contraction challenge was then induced again by addition of histamine. The contractions which occurred were again measured over 30 seconds. The difference between the amplitude of the contraction obtained by histamine addition alone and the amplitude of the contraction obtained in the presence of the test substance was determined and calculated as % inhibition.
The inhibitory effects on the contractions induced by histamine 30 seconds after administration of the test substance and on the contractions induced by addition of histamine 10 minutes afterward are given in the table.

Experiment [2] has as its system Passive cutaneous anaphylaxis (P.C.A.). As to the kind of experiment: Inhibition of passive cutaneous anaphylaxis (P.C.A.). Format: in vivo, rat (Sprague-Dawley). The following applies: Rattus norvegicus, 1 h; rats, 2 × 10^-5 mol/kg p.o., one hour before ovalbumin challenge. On the procedure: as §1
The P.C.A. reaction was carried out according to the methods described by Goose et al. (J.N. Immunology 16 (1969), 749) and by Martin et al (Arch. Pharmacol. 316 (1981), 186}.
The IgE-rich ovalbumin antiserum used in the test was obtained from immunized Brown-Norway rats. For immunization, the rats were given an i.p. injection of a mixture of 100 μg of ovalbumin with a Bordetella pertussis suspension (Vaxicoq®, Manufacturer: Institut Merieux, containing 5×10^9 organisms and 1.25 mg of Al(OH)3). After 20 days, the animals received a further i.p. injection of a solution of 10 μg of ovaIbumin in 0.5 ml of physiological saline solution for reimmunisation. After a further four days, the animals were bled, and the blood was centrifuged The antiserum obtained in this way was stored at -20° C. until use.
as §2
Sprague-Dawley rats having a body weight of 150-180 g were injected intradermally in one flank with 50 μl of a 1:75 dilution of the IgE-rich ovalbumin antiserum in physiological sodium chloride solution for passive sensitization to ovalbumin.
24 hours after sensitization a solution of 8.25 mg/kg of ovalbumin and 26.4 mg/kg of a blue dye (Evans' Blue) was administered i.v. to the rats according to Martin et al. to induce passive cutaneous anaphylaxis. The ovalbumin challenge caused a local anaphylactic reaction at the site at which the antiserum had been injected.
as §3, §4, §5

For experiment [3], the system named is P.A.F.-induced aggregation of platelets from rabbit blood. Nature of the experiment: Anti-P.A.F. effect in vitro: inhibition of P.A.F.-induced platelet aggregation. Format: cell-based, rabbit (New Zealand hybrids). The following applies: Oryctolagus cuniculus, Platelet, test substance concentration 10^-5 mol/l. From the text: 4. Determination of anti-P.A.F. effect in vitro.
Platelet-activating factor (P.A.F.) is a phospholipid mediator which has several effects. The activation of platelet aggregation leads to the induction of protracted broncho contractions and hyperreactivity of the airways.
The effects of the test substances on platelet aggregation induced by adding P.A.F. to a platelet suspension obtained from rabbit blood was investigated by the method described by Mikashima et al. (Jap. J. Pharmacol. 44 (1987) 387-391).
A suspension of platelets originating from rabbit blood was used which contained 4×10^9 platelets/ml in a modified Tyrode buffer solution adjusted to pH 7.4. Tyrode solution is an aqueous solution containing 136.9 mmol of NaCl, 2.68 mmol of KCl, 2.31 mmol of CaCl2, 1.0 mmol of MgCl2, 11.9 mmol of NaHCO3, 1.45 mmol of NaH2 PO4 and 5.55 mmol of glucose per liter. This solution was modified by adding 1.3 mM/l of CaCl2 and 2.5 g/l of gelatin. The platelets were obtained from 10 ml blood samples from each of three rabbits (New Zealand hybrids, body weight 3-4 kg). For this, the blood samples were treated with ethylenediaminetetraacetic acid and washed by the method of Artley et al. (Brit. J. Hamatol. 19 (1970), 7-17). A platelet-rich plasma was then initially separated by centrifugation (20 minutes at 400×g). The platelets were separated from the plasma by centrifuging again for 15 minutes at 1400×g. After centrifuging, the platelets remaining as a sediment were resuspended in a calcium-free Tyrode buffer solution. 0.4 mmol of lysine acetylsalicylate were then added and after 15 minutes the blood platelets were sedimented again. The sediment was resuspended in the abovementioned modified Tyrode buffer solution, and the number of platelets in the resulting suspension was adjusted to the desired content.
A 40×10^-9 molar P.A.F. solution was used as the reagent. This solution was prepared from a 1.8×10^-3 molar stock solution in chloroform. For this, a 10μl sample of the stock solution was evaporated to dryness and redissolved in 180 μl of the modified Tyrode solution, to which 0.25% of dilapidated bovine serum albumin had been added. 10^-5 molar working solutions were then prepared from this and stored frozen. Samples of these solutions were appropriately diluted for the tests.
To carry out the tests, 50 μl of the platelet solution and 10 μl of a 40×10^-5 molar solution of the compound to be investigated were added to 330 μl of the modified Tyrode buffer solution with stirring (1000 rpm) in an aggregation tube provided with a small magnetic stirrer. This corresponds to a final test substance concentration of 10^-5 mol/l. After a preincubation time of 90seconds, 10 μl of the P.A.F. preparation were added. The aggregation occurring in the aggregation tubes was measured for 4-5 minutes using a computerized aggregometer.
The aggregation occurring in the test tubes containing only platelet suspension was rated as 0%. The aggregation occurring in test tubes containing platelet suspension and P.A.F. preparation was rated as 100%. The aggregation which still occurred in the presence of the test substances (i.e. during inhibition of the P.A.F.-induced platelet aggregation increase) was measured, and the resulting aggregation inhibition is calculated from this in %.

Where [4] appears, read: after 30 sec., read-out: in vitro (H1) receptor antagonism % inhibitory effect on histamine-induced contractions of the Ileum, after 30 sec.
The mark [5] stands for this setting: after 10 min. (after washing), read-out: in vitro (H1) receptor antagonism % inhibitory effect on histamine-induced contractions of the Ileum, after 10 min.

Each structure is given as a SMILES string. Where two headings read alike, the source gives them in different places.

T1 sequence (P31389 whole entry): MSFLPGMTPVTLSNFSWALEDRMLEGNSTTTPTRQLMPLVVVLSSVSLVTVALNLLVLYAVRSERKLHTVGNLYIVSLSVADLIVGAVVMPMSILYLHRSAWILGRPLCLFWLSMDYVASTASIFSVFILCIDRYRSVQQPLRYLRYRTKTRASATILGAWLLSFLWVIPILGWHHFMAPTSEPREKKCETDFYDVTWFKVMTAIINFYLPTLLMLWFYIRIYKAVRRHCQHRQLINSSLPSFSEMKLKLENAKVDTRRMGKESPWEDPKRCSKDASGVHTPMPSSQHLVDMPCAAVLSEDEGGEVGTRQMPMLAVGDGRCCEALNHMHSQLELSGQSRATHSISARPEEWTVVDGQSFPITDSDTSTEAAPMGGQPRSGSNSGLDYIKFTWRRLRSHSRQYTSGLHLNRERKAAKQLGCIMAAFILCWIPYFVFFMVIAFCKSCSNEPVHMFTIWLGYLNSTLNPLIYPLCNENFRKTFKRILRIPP

Consider `Cc1ccnc(N2CCN(CCc3c(C)n4c5c(cccc35)S(=O)(=O)CC4)CC2)c1` [Example 28b, 2,3-dihydro-5-methyl-6-{2-[4-(4-methylpyridin-2-yl)-piperazin-1yl]ethyl}-pyrrolo[1,2,3-de]-1,4-benzothiazine-1,1-dioxide], for which the inhibition in vivo at 20 µmol/kg in experiment [1] was determined as 85%; in experiment [2], 100%. Further, the inhibition at 1 µM at histamine (H1) receptor (setting [4]) was 6%; at histamine (H1) receptor (setting [5]), 14%.

On to `Cc1ccnc(N2CCN(CCc3c(-c4ccc(Cl)cc4)n4c5c(cccc35)CCC4)CC2)c1` [Example 46], for which the inhibition in vivo at 20 µmol/kg amounted to 25% in experiment [1] and 35% in experiment [2]. For the same compound, the inhibition at 10 µM in experiment [3] amounted to 91%.

Regarding `COc1cccc(N2CCN(CCc3c(C)n4c5c(cccc35)CCC4)CC2)c1` [Example 48], the inhibition in vivo at 20 µmol/kg in experiment [1] is 35%; in experiment [2] it was 25%. Moreover, the inhibition at 1 µM at histamine (H1) receptor (setting [4]) came out at 35%; at histamine (H1) receptor (setting [5]), 48%.

For `Cc1cccc(N2CCN(CCc3c(C)n4c5c(cccc35)CCC4)CC2)n1` [Example 50], the inhibition in vivo at 20 µmol/kg was determined as 50% in experiment [1] and 60% in experiment [2]. In addition, the inhibition at 1 µM was determined as 24% at histamine (H1) receptor (setting [4]) and 50% at histamine (H1) receptor (setting [5]).
